Results published in ChEMBL document CHEMBL4834418, “Pentaminomycins F and G, Nonribosomal Peptides Containing 2-Pyridylalanine” (2021).
Converted amounts (≈) assume the structure as drawn. The source made the active and inactive calls. The rule behind the calls is not given here. Starred links: 1 amine or outer side, 2 acyl side, 3 side chain; linkers in the order of their positions; H or OH if unused. Non-standard residues stand in square brackets, D forms with d. Residues, ends and D or L forms follow the SMILES beside them. X1 = N=C(N)N(O)CCC[C@H](N[*:1])C(=O)[*:2]

How the values were obtained:
Acinetobacter baumannii = experiment: Antibacterial activity against Acinetobacter baumannii MB5973 measured after overnight incubation; assay type: functional
Pseudomonas aeruginosa = experiment: Antibacterial activity against Pseudomonas aeruginosa MB5919 measured after overnight incubation; assay type: functional, organism-based
Escherichia coli = experiment: Antibacterial activity against Escherichia coli ATCC 25922 measured after overnight incubation; assay type: functional, organism-based
Klebsiella pneumoniae = experiment: Antibacterial activity against Klebsiella pneumoniae ATCC 700603 measured after overnight incubation; assay type: functional, organism-based

MIC (Acinetobacter baumannii) [µg/mL] | Compound | Activity (Pseudomonas aeruginosa) | Activity (Escherichia coli) | Activity (Klebsiella pneumoniae)
16 (≈ 22.3 µM) | CC(C)C[C@@H]1NC(=O)[C@@H](Cc2ccccc2)NC(=O)[C@H](CCCN(O)C(=N)N)NC(=O)[C@H](Cc2c[nH]c3ccccc23)NC(=O)[C@@H](C(C)C)NC1=O | inactive | inactive | inactive
16 (≈ 23.4 µM) | CC(C)C[C@@H]1NC(=O)[C@@H](CC(C)C)NC(=O)[C@H](CCCN(O)C(=N)N)NC(=O)[C@H](Cc2c[nH]c3ccccc23)NC(=O)[C@@H](C(C)C)NC1=O (cyclo(L[dV]W[X1][dL])) | inactive | inactive | inactive
